Common to all, as to type: cell-based
The target in assay [1] is T1, Protein cereblon/B-cell lymphoma 6 protein (Homo sapiens, UniProt Q96SW2+P41182). The assay can be described thus: Auto-RapTAC activity at CRBN/BCL6 in HEK293T cells expressing GFP-BCL6 (unknown origin) assessed as BCL6 degradation at 500 to 1000 nM incubated for 24 hrs by fluorescence based analysis. The conditions noted are these: dose 500-1000 nM.
The nature of assay [2]: (§1) Auto-RapTAC activity at MDM2/CDK12 in human HeLa cells assessed as CDK12 degradation incubated for 24 hrs by cytoblot analysis.
Assay [3] deals with HeLa. The description is as §1. The conditions noted are these: dose 500-1000 nM.
The test system of assay [4] is HeLa. The assay can be described thus: Auto-RapTAC activity at MDM2/CDK12 in human HeLa cells assessed as CDK12 degradation at 500 to 1000 nM incubated for 24 hrs by cytoblot analysis relative to control. The conditions noted are these: dose 500-1000 nM.
The target of assay [5] is T2, von Hippel-Lindau disease tumor suppressor/Cyclin-dependent kinase 12 (Homo sapiens, UniProt P40337+Q9NYV4). Description: Auto-RapTAC activity at VHL/CDK12 in human HeLa cells assessed as CDK12 degradation at 500 to 1000 nM incubated for 24 hrs by cytoblot analysis relative to control. The conditions noted are these: dose 500-1000 nM.
Target sequence in this assay (P40337 whole entry, looked up): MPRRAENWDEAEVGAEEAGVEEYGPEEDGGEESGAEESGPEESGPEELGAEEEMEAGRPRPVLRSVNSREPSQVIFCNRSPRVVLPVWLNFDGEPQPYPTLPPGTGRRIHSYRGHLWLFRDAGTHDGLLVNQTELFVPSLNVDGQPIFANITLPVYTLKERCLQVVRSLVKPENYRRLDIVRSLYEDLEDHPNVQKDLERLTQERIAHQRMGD
Target sequence in this assay (Q9NYV4 whole entry, looked up): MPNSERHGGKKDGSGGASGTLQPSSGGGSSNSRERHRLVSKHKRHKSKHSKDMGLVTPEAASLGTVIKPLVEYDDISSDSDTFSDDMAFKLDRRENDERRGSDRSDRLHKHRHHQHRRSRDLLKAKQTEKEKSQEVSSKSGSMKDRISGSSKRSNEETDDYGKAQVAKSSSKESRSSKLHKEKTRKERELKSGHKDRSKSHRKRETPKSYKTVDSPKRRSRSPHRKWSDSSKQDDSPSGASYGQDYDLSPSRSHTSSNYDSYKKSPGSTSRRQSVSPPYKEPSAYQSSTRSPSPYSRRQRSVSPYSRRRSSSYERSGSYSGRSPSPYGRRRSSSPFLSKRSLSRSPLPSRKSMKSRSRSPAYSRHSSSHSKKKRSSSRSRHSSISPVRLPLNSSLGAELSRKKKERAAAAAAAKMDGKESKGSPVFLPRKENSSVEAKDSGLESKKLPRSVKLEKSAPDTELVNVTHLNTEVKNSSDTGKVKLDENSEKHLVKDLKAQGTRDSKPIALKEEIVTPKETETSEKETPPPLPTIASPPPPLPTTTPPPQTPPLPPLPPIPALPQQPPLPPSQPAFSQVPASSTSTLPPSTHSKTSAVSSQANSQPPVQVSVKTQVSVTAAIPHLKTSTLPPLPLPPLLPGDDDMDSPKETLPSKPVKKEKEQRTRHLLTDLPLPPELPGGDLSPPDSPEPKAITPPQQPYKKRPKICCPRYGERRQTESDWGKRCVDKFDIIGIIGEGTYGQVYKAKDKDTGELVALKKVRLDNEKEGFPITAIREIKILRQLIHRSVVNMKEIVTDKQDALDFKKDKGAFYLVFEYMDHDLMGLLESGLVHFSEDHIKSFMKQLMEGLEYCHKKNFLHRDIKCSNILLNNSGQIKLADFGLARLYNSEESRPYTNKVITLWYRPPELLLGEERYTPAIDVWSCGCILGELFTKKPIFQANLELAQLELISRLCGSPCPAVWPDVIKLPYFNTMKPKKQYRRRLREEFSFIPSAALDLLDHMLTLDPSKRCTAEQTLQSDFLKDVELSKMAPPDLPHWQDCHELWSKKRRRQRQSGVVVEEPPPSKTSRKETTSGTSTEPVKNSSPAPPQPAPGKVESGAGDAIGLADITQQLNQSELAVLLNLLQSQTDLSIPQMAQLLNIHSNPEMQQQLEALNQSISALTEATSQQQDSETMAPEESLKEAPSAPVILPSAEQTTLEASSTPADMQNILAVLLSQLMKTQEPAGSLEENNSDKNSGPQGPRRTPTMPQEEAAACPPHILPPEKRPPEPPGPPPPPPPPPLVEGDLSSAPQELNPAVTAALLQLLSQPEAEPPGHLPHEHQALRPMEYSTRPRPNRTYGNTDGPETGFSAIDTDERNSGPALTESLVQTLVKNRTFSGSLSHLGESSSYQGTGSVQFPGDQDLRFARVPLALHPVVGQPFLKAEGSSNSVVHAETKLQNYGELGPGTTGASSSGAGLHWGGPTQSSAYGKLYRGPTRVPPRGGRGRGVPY
Assay [6] has as its target T2, von Hippel-Lindau disease tumor suppressor/Cyclin-dependent kinase 12. Description: Auto-RapTAC activity at VHL/CDK12 in human HeLa cells assessed as CDK12 degradation incubated for 24 hrs by cytoblot analysis.
The target of assay [7] is von Hippel-Lindau disease tumor suppressor/B-cell lymphoma 6 protein (Homo sapiens, UniProt P40337+P41182). Description: Auto-RapTAC activity at VHL/BCL6 in HEK293T cells expressing GFP-BCL6 (unknown origin) assessed as BCL6 degradation incubated for 24 hrs by fluorescence based analysis.
Assay [8] has as its system HEK293T. The assay can be described thus: Auto-RapTAC activity at MDM2/BCL6 in HEK293T cells expressing GFP-BCL6 (unknown origin) assessed as BCL6 degradation at 500 to 1000 nM incubated for 24 hrs by fluorescence based analysis. The conditions noted are these: Homo sapiens, dose 500-1000 nM.
The target of assay [9] is Protein cereblon/Cyclin-dependent kinase 2 (Homo sapiens, UniProt P24941+Q96SW2). Description: Auto-RapTAC activity at CRBN/CDK2 in human NCI-H1299 cells assessed as CDK2 degradation incubated for 24 hrs by Western blot analysis. (In general: Immunoblotting shows a protein as a band on a membrane.)
In assay [10] the target is T1, Protein cereblon/B-cell lymphoma 6 protein. Description: Auto-RapTAC activity at CRBN/BCL6 in HEK293T cells expressing GFP-BCL6 (unknown origin) assessed as BCL6 degradation incubated for 24 hrs by fluorescence based analysis.

Here are results for eleven compounds from ChEMBL document CHEMBL6134799, “Auto-RapTAC: A Versatile and Sustainable Platform for the Automated Rapid Synthesis and Evaluation of PROTAC” (J Med Chem, 2025).

Activity calls are given as the source filed them. The rule behind the calls is not given here. Bounds are passed on as bounds.

T1 sequence (Q96SW2 whole entry, looked up, other chains not shown): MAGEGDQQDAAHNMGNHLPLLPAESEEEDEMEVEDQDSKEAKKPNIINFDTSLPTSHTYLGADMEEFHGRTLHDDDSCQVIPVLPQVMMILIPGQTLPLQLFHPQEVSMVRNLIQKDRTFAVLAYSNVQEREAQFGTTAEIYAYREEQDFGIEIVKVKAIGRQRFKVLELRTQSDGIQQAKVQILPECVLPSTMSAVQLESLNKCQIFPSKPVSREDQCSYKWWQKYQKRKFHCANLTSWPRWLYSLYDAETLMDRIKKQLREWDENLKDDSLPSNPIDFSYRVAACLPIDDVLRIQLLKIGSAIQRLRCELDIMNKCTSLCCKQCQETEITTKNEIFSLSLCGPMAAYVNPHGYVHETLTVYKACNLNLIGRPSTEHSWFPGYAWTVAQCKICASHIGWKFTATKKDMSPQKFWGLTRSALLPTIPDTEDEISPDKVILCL
Chain of von Hippel-Lindau disease tumor suppressor/B-cell lymphoma 6 protein (P40337 whole entry, looked up, other chains not shown): as the sequence (P40337 whole entry, looked up) above

As to `CNC(=O)COc1cc2cc(Nc3nc(N4CCC(c5cn(CCCCCCCCCOc6ccc7c(c6)C(=O)N(C6CCC(=O)NC6=O)C7=O)nn5)CC4)ncc3Cl)ccc2n(C)c1=O` (centres undefined), in assay [1], the result was Active.

The term DC50 denotes the midpoint of the concentration-degradation curve. Take `CCOC(=O)c1[nH]c2cc(Cl)ccc2c1C(C(=O)NC(C)(C)C)N(Cc1cc(F)c(F)c(F)c1)C(=O)CCCCCCn1cc(CCCOc2cc3[nH]c(CNc4nc(N5CCOCC5)nc5c4ncn5C(C)C)nc3cc2F)nn1` (centres undefined): the DC50 in [2] was found to be 2.4 nM. Besides, the Activity entry in [3] is “Dose-dependent-effect; Hook Effect Was Not Observed”; in assay [4] it was > 60%.

For the compound `Cc1ncsc1-c1ccc([C@H](C)NC(=O)[C@@H]2C[C@@H](O)CN2C(=O)[C@H](NC(=O)CCCCCCCCCCn2cc(CCCOc3cc4[nH]c(CNc5nc(N6CCOCC6)nc6c5ncn6C(C)C)nc4cc3F)nn2)C(C)(C)C)cc1`, the Activity in assay [5] is > 60%.

For `Cc1ncsc1-c1ccc([C@H](C)NC(=O)[C@@H]2C[C@@H](O)CN2C(=O)[C@H](NC(=O)COCCCCn2cc(CCCOc3cc4[nH]c(CNc5nc(N6CCOCC6)nc6c5ncn6C(C)C)nc4cc3F)nn2)C(C)(C)C)cc1`, the Activity in assay [5] was > 60%; in assay [6] (dose 500-1000 nM), “Dose-dependent-effect; Hook Effect Was Not Observed”. In addition, in assay [6], the DC50 is 2.7 nM.

`CCOC(=O)c1[nH]c2cc(Cl)ccc2c1C(C(=O)NC(C)(C)C)N(Cc1cc(F)c(F)c(F)c1)C(=O)CCCCCn1cc(CCCOc2cc3[nH]c(CNc4nc(N5CCOCC5)nc5c4ncn5C(C)C)nc3cc2F)nn1` (centres undefined): in [4], the Activity was > 60%.

For `CNC(=O)COc1cc2cc(Nc3nc(N4CCC(c5cn(CCCCCCCCCCC(=O)N[C@@H](C(=O)N6C[C@H](O)C[C@H]6C(=O)N[C@@H](C)c6ccc(-c7scnc7C)cc6)C(C)(C)C)nn5)CC4)ncc3Cl)ccc2n(C)c1=O`, the DC50 in assay [7] turned out to be 3.1 nM. Moreover, in assay [7] (dose 500-1000 nM), the Activity entry is “Dose-dependent-effect; Hook Effect Was Not Observed”. The result in assay [8] was Active.

Regarding `Cc1ncsc1-c1ccc([C@H](C)NC(=O)[C@@H]2C[C@@H](O)CN2C(=O)[C@H](NC(=O)CCCCCCCCCCn2cc(CCC(=O)N3CCC(NC(=O)c4n[nH]cc4NC(=O)c4c(Cl)cccc4Cl)CC3)nn2)C(C)(C)C)cc1`, the DC50 in assay [9] turned out to be 454 nM.

For the compound `CNC(=O)COc1cc2cc(Nc3nc(N4CCC(c5cn(CCCCCCCCOc6ccc7c(c6)C(=O)N(C6CCC(=O)NC6=O)C7=O)nn5)CC4)ncc3Cl)ccc2n(C)c1=O` (centres undefined), in assay [1], the outcome was Active.

For the compound `Cc1ncsc1-c1ccc([C@H](C)NC(=O)[C@@H]2C[C@@H](O)CN2C(=O)[C@H](NC(=O)CCCCCCCCCCn2cc(CCC(=O)N3CCC(NC(=O)c4n[nH]cc4NC(=O)c4c(F)cccc4Cl)CC3)nn2)C(C)(C)C)cc1`, in assay [9], the DC50 is 362 nM.

Regarding `CNC(=O)COc1cc2cc(Nc3nc(N4CCC(c5cn(CCCCCCCOc6ccc7c(c6)C(=O)N(C6CCC(=O)NC6=O)C7=O)nn5)CC4)ncc3Cl)ccc2n(C)c1=O` (centres undefined), the DC50 in assay [10] was 7 nM. For the same compound, the Activity result in assay [10] (dose 500-1000 nM) is given as “Dose-dependent-effect; Hook Effect Was Not Observed”. Moreover, in assay [1], the result was Active.

As for `CNC(=O)COc1cc2cc(Nc3nc(N4CCC(c5cn(CCCCCCCCCCOc6ccc7c(c6)C(=O)N(C6CCC(=O)NC6=O)C7=O)nn5)CC4)ncc3Cl)ccc2n(C)c1=O` (centres undefined), the result in assay [1] was Active.
